These results are taken from patent US4537772A, “Enhancing absorption of drugs from gastrointestinal tract using acylcarnitines” (Merck & Co., Inc., priority 1984, dated 1985).

For data set [1] the following is noted: rat, in vivo.
Description: (§1) Effect of palmitoylcarnitine chloride on the rectal absorption of drug entities. Experiments were performed with rats wherein each animal received an aqueous microenema applied to the rectal cavity. […] Blood levels were monitored and the amount of drug absorbed calculated against intravenous administration and expressed as percent bioavailability.
(§2) Concentration dependence of palmitoylcarnitine effect on rectal absorption of sodium cefoxitin, a β-lactam antibiotic. […] Blood samples were collected and assayed for sodium cefoxitin. The amount of drug absorbed is expressed as percent bioavailability as compared to intravenous administration.
(§3) Effect of various carnitine esters on rectal absorption of sodium cefoxitin, a β-lactam antibiotic, and cyclo(N-Ala-Tyr-D-Trp-Lys-Val-Phe)acetate, a polypeptide. […] Blood samples were collected and sodium cefoxitin or cyclo(N-AlA-TyR-D-Trp-Lys-Val-Phe)acetate assayed. The amount of drug absorbed is expressed as percent bioavailability versus intravenous administration.
(§4) Importance of carnitine-palmitoyl ester linkage in absorption promoting effects on rectal sodium cefoxitin absorption. […] Blood was collected and sodium cefoxitin measured. Absorption of sodium cefoxitin is expressed as percent bioavailability versus intravenous administration.
The nature of data set [2]: Rectal absorption of target drug from aqueous microenema, percent bioavailability versus intravenous administration. The settings on record: carnitine without acyl ester.
Description: as §1, §2, §3, §4
A short description of data set [3]: in vivo. The note with it: rat.
Description: as §1, §2, §3, §4
The nature of data set [4]: in vivo. The note with it: rat. This is another data set of the same source.
Description: Effect of palmitoylcarnitine chloride on small intestinal absorption of polypeptides. Experiments were performed with rats wherein each animal received an aqueous solution applied to the duodenal region. […] Blood levels were monitored and the amount of polypeptide absorbed calculated against intravenous administration and expressed as percent bioavailability.

As to `Cn1c(=O)c2[nH]cnc2n(C)c1=O` [Theophylline], in data set [1], the “Percent Bioavailability (mean ± SD) Control” value came to 75 ± 3.3% and the “Percent Bioavailability (mean ± SD) with Palmitoylcarnitine-Cl” value amounted to 75 ± 2.6%.

In the case of `C[N+](C)(C)CC(O)CC(=O)[O-]` (stereo not shown) [Carnitine], in data set [2], the “absorption promoting effect of carnitine alone” value is listed as “no effect”. The “Sodium Cefoxitin Percent Bioavailability (mean ± SD)” value in data set [1] (pH 6) is reported as 1 ± 0.6%.

For `Nc1ccn([C@@H]2O[C@H](CO)[C@@H](O)[C@@H]2O)c(=O)n1` [Cytarabine], in data set [1], the “Percent Bioavailability (mean ± SD) Control” value was found to be 0.5 ± 0.1% and the “Percent Bioavailability (mean ± SD) with Palmitoylcarnitine-Cl” value came to 9 ± 0.6%.

With `CC(C)[C@@H]1NC(=O)[C@H](CCCCN)NC(=O)[C@@H](Cc2c[nH]c3ccccc23)NC(=O)[C@H](Cc2ccc(O)cc2)NC(=O)[C@H](C)N(C)C(=O)[C@H](Cc2ccccc2)NC1=O` [#-363,586, cyclo(N--Me--Ala--Tyr--DTrp--Lys--Val--Phe)acetate], the bioavailability in “in vivo [3]” (0.1 mg, pH 6, Percent Bioavailability (mean ± SD) Cyclo(N-Ala-Tyr-D-Trp-Lys-Val-Phe)acetate) was determined as 7 ± 3.5%; in the data set “in vivo [3]” (Percent Bioavailability (mean ± SD) Control) it was 7 ± 3.5%; in “in vivo [3]” (Percent Bioavailability (mean ± SD) with Palmitoylcarnitine-Cl), 100 ± 28.2%; in “in vivo [4]”, 1%.

Take `CO[C@@]1(NC(=O)Cc2cccs2)C(=O)N2C(C(=O)O)=C(COC(N)=O)CS[C@@H]21` [Sodium cefoxitin]: in data set [1], the “Percent Bioavailability (mean ± SD) Control” value turned out to be 2 ± 1.1% and the “Percent Bioavailability (mean ± SD) with Palmitoylcarnitine-Cl” value worked out at 68 ± 7.2%. In data set [1] (pH 6), the “Percent Bioavailability (mean ± SD) Sodium Cefoxitin” value came to 2 ± 1.1%, the “Sodium Cefoxitin Percent Bioavailability (mean ± SD)” value worked out at 2 ± 1.1% and the “Sodium Cefoxitin Percent Bioavailability mean ± SD” value is recorded as 2 ± 1.1%.

Regarding `CCCCCCCCCCCCCCCC(=O)O` [Palmitic acid], the “Sodium Cefoxitin Percent Bioavailability (mean ± SD)” value in data set [1] (pH 6) came out at 1 ± 0.8%.

For orientation: bioavailability means the share of a dose that reaches the circulation, judged against a reference dose that is usually intravenous. The low end stands for little systemic uptake, the high end for much systemic uptake.
